Measured values as given in ChEMBL document CHEMBL3885861, “Open TG-GATES”.

Species on record: Rattus norvegicus
Assay: Open TG-GATES - Regimen: Daily Repeat
Type: toxicity, organism-based, Sprague-Dawley
Parameters: regimen Daily Repeat, gender Male, age 6 weeks
Conditions: in vivo, po, 1000 mg/kg, route gavage, dose level High; for APTT / Bas / Eos / Fbg / Hb / Ht / Lym / MCH / MCHC / MCV / Mono / Neu / PT / Plat / RBC / Ret / WBC: tissue Blood; for KIDNEY_L / KIDNEY_R / KIDNEY_TOTAL: tissue Kidney; for LIVER: tissue Liver; for A/G / ALP / ALT / AST / BUN / CRE / Ca / Cl / DBIL / GLC / IP / K / LDH / Na / PL / RALB / TBIL / TC / TG / TP / gamma-GTP: tissue Plasma

Structure (SMILES): O=C(O)c1cc(/N=N/c2ccc(S(=O)(=O)Nc3ccccn3)cc2)ccc1O [SULFASALAZINE]
- TERMINAL_BW (72 h, time 3 day): 221.5 g
- APTT (72 h, time 3 day): 18 s
- Bas (72 h, time 3 day): 0%
- Eos (72 h, time 3 day): 0.8%
- Fbg (72 h, time 3 day): 215 mg/dL
- Hb (72 h, time 3 day): 14.4 g/dL
- Ht (72 h, time 3 day): 42%
- Lym (72 h, time 3 day): 87.2%
- MCH (72 h, time 3 day): 21.4 pg
- MCHC (72 h, time 3 day): 34.2%
- MCV (72 h, time 3 day): 62.4 fL
- Mono (72 h, time 3 day): 2%
- Neu (72 h, time 3 day): 8.8%
- PT (72 h, time 3 day): 13.1 s
- Plat (72 h, time 3 day): 127.1 x10_4/uL
- RBC (72 h, time 3 day): 674.2 x10_4/ul
- Ret (72 h, time 3 day): 3.4%
- WBC (72 h, time 3 day): 93.4 x10_2/uL
- KIDNEY_L (72 h, time 3 day): 1 g
- KIDNEY_R (72 h, time 3 day): 1 g
- KIDNEY_TOTAL (72 h, time 3 day): 1.9 g
- LIVER (72 h, time 3 day): 10.2 g
- A/G (72 h, time 3 day): 1.6
- ALP (72 h, time 3 day): 888.8 IU/L
- ALT (72 h, time 3 day): 49.4 IU/L
- AST (72 h, time 3 day): 77.4 IU/L
- BUN (72 h, time 3 day): 20.8 mg/dL
- CRE (72 h, time 3 day): 0.4 mg/dL
- Ca (72 h, time 3 day): 10.8 mg/dL
- Cl (72 h, time 3 day): 103.6 meq/L
- DBIL (72 h, time 3 day): 0.094 mg/dL
- GLC (72 h, time 3 day): 187.4 mg/dL
- IP (72 h, time 3 day): 6.8 mg/dL
- K (72 h, time 3 day): 3.6 meq/L
- LDH (72 h, time 3 day): 252.8 IU/L
- Na (72 h, time 3 day): 141 meq/L
- PL (72 h, time 3 day): 149.2 mg/dL
- RALB (72 h, time 3 day): 3.5 g/dL
- TBIL (72 h, time 3 day): 0.1 mg/dL
- TC (72 h, time 3 day): 78.4 mg/dL
- TG (72 h, time 3 day): 70 mg/dL
- TP (72 h, time 3 day): 5.6 g/dL
- gamma-GTP (72 h, time 3 day): 1.4 IU/L
- TERMINAL_BW ([…], time 7 day): 246.1 g
- TERMINAL_BW ([…], time 14 day): 276.8 g
- TERMINAL_BW ([…], time 28 day): 334.1 g
- APTT ([…], time 7 day): 19.3 s
- Bas ([…], time 7 day): 0%
- Eos ([…], time 7 day): 0.6%
- Fbg ([…], time 7 day): 197 mg/dL
- Hb ([…], time 7 day): 14.1 g/dL
- Ht ([…], time 7 day): 40.8%
- Lym ([…], time 7 day): 86.2%
- MCH ([…], time 7 day): 21.2 pg
- MCHC ([…], time 7 day): 34.7%
- MCV ([…], time 7 day): 61.1 fL
- Mono ([…], time 7 day): 2.6%
- Neu ([…], time 7 day): 9.6%
- PT ([…], time 7 day): 13.6 s
- Plat ([…], time 7 day): 106.1 x10_4/uL
- RBC ([…], time 7 day): 667.6 x10_4/ul
- Ret ([…], time 7 day): 4.5%
- WBC ([…], time 7 day): 106.7 x10_2/uL
- APTT ([…], time 14 day): 19.4 s
- Bas ([…], time 14 day): 0%
- Eos ([…], time 14 day): 0.8%
- Fbg ([…], time 14 day): 200.6 mg/dL
- Hb ([…], time 14 day): 15.2 g/dL
- Ht ([…], time 14 day): 42.7%
- Lym ([…], time 14 day): 85.4%
- MCH ([…], time 14 day): 20.2 pg
- MCHC ([…], time 14 day): 35.6%
- MCV ([…], time 14 day): 57 fL
- Mono ([…], time 14 day): 1.8%
- Neu ([…], time 14 day): 10.8%
- PT ([…], time 14 day): 13.4 s
- Plat ([…], time 14 day): 106.3 x10_4/uL
- RBC ([…], time 14 day): 750.2 x10_4/ul
- Ret ([…], time 14 day): 3%
- WBC ([…], time 14 day): 132.9 x10_2/uL
- APTT ([…], time 28 day): 18.9 s
- Bas ([…], time 28 day): 0%
- Eos ([…], time 28 day): 1%
- Fbg ([…], time 28 day): 206.2 mg/dL
- Hb ([…], time 28 day): 14.9 g/dL
- Ht ([…], time 28 day): 41.8%
- Lym ([…], time 28 day): 84%
- MCH ([…], time 28 day): 19.5 pg
- MCHC ([…], time 28 day): 35.6%
- MCV ([…], time 28 day): 54.7 fL
- Mono ([…], time 28 day): 1.8%
- Neu ([…], time 28 day): 12.6%
- PT ([…], time 28 day): 13.3 s
- Plat ([…], time 28 day): 101.4 x10_4/uL
- RBC ([…], time 28 day): 763.6 x10_4/ul
- Ret ([…], time 28 day): 4.2%
- WBC ([…], time 28 day): 116.9 x10_2/uL
- KIDNEY_L ([…], time 7 day): 1 g
- KIDNEY_R ([…], time 7 day): 1 g
- KIDNEY_TOTAL ([…], time 7 day): 2.1 g
- KIDNEY_L ([…], time 14 day): 1.1 g
- KIDNEY_R ([…], time 14 day): 1.2 g
- KIDNEY_TOTAL ([…], time 14 day): 2.2 g
- KIDNEY_L ([…], time 28 day): 1.3 g
- KIDNEY_R ([…], time 28 day): 1.3 g
- KIDNEY_TOTAL ([…], time 28 day): 2.6 g
- LIVER ([…], time 7 day): 10.8 g
- LIVER ([…], time 14 day): 11.1 g
- LIVER ([…], time 28 day): 12.9 g
- A/G ([…], time 7 day): 1.6
- ALP ([…], time 7 day): 756.2 IU/L
- ALT ([…], time 7 day): 46 IU/L
- AST ([…], time 7 day): 74 IU/L
- BUN ([…], time 7 day): 19.8 mg/dL
- CRE ([…], time 7 day): 0.4 mg/dL
- Ca ([…], time 7 day): 10.7 mg/dL
- Cl ([…], time 7 day): 104.6 meq/L
- DBIL ([…], time 7 day): 0.068 mg/dL
- GLC ([…], time 7 day): 202.8 mg/dL
- IP ([…], time 7 day): 7.2 mg/dL
- K ([…], time 7 day): 3.4 meq/L
- LDH ([…], time 7 day): 216.4 IU/L
- Na ([…], time 7 day): 142.4 meq/L
- PL ([…], time 7 day): 118 mg/dL
- RALB ([…], time 7 day): 3.5 g/dL
- TBIL ([…], time 7 day): 0.1 mg/dL
- TC ([…], time 7 day): 63 mg/dL
- TG ([…], time 7 day): 36.4 mg/dL
- TP ([…], time 7 day): 5.7 g/dL
- gamma-GTP ([…], time 7 day): 1.4 IU/L
- A/G ([…], time 14 day): 1.6
- ALP ([…], time 14 day): 776.2 IU/L
- ALT ([…], time 14 day): 47.6 IU/L
- AST ([…], time 14 day): 75.2 IU/L
- BUN ([…], time 14 day): 21.2 mg/dL
- CRE ([…], time 14 day): 0.5 mg/dL
- Ca ([…], time 14 day): 10.7 mg/dL
- Cl ([…], time 14 day): 103 meq/L
- DBIL ([…], time 14 day): 0.068 mg/dL
- GLC ([…], time 14 day): 186.2 mg/dL
- IP ([…], time 14 day): 6.7 mg/dL
- K ([…], time 14 day): 3.5 meq/L
- LDH ([…], time 14 day): 196.6 IU/L
- Na ([…], time 14 day): 141.8 meq/L
- PL ([…], time 14 day): 122.2 mg/dL
- RALB ([…], time 14 day): 3.7 g/dL
- TBIL ([…], time 14 day): 0.1 mg/dL
- TC ([…], time 14 day): 67.2 mg/dL
- TG ([…], time 14 day): 33.8 mg/dL
- TP ([…], time 14 day): 6.1 g/dL
- gamma-GTP ([…], time 14 day): 1.4 IU/L
- A/G ([…], time 28 day): 1.6
- ALP ([…], time 28 day): 655 IU/L
- ALT ([…], time 28 day): 44.8 IU/L
- AST ([…], time 28 day): 68.6 IU/L
- BUN ([…], time 28 day): 19.8 mg/dL
- CRE ([…], time 28 day): 0.5 mg/dL
- Ca ([…], time 28 day): 10.4 mg/dL
- Cl ([…], time 28 day): 103.6 meq/L
- DBIL ([…], time 28 day): 0.074 mg/dL
- GLC ([…], time 28 day): 206.8 mg/dL
- IP ([…], time 28 day): 6.2 mg/dL
- K ([…], time 28 day): 3.3 meq/L
- LDH ([…], time 28 day): 137.6 IU/L
- Na ([…], time 28 day): 143.2 meq/L
- PL ([…], time 28 day): 108.6 mg/dL
- RALB ([…], time 28 day): 3.8 g/dL
- TBIL ([…], time 28 day): 0.1 mg/dL
- TC ([…], time 28 day): 62.2 mg/dL
- TG ([…], time 28 day): 27.6 mg/dL
- TP ([…], time 28 day): 6.1 g/dL
- gamma-GTP ([…], time 28 day): 1.4 IU/L
